# Measured values reported in patent publication US20190105340A1, “METHODS AND COMPOSITIONS FOR TARGETING VASCULAR MIMICRY” (New York Genome Center, Inc., priority 2017, published 2019).
# Entries after “also recorded” stand apart in the source; their conditions may differ.
# Key:
# [1] = cancer patients; cited from earlier work
# [2] = low-dose, IRE1 activation in vivo; cited from earlier work
# 4T1-T^VM cells [3] = experiment: in vitro VM tube assay on Matrigel; assay type: cell-based, mouse; conditions: 4T1-T^VM cells treated directly, plated on Matrigel
# Text: FIG. 1G are gel photographs showing the results of an in vitro Matrigel assay for VM. Only VM clones 4T1-E and 4T1-T can form tube structures when plated on Matrigel. All data from ref. 7.
# Both SerpinE2 and SLPI are secreted proteins but whether their secretion is necessary for their effects on VM is unknown. To ascertain the importance of intra- vs extracellular localization of SerpinE2 and SLPI, we perform knockdown add-back experiments in which we suppress SerpinE2 or SLPI in 4T1-T^VM cells using shRNAs directed against the 3′ UTR followed by re-expression of HALO-tagged coding sequence constructs (FIG. 2) in which the signal peptide (a necessary signal for secretion) is either present or absent^8. These engineered cell lines then are tested for their ability to form VM tubes in vitro in the Matrigel assay and their ability to form VM channels and metastases in vivo by transplantation into the mammary fat-pad of Balb/C mice.
# To ascertain whether regulation of VM underlies these effects of IRE1 on metastasis we turned to the in vitro VM tube assay. Inhibition of IRE1 with two independent small molecule inhibitors of its RNAse activity enhanced VM tubulogenesis while activation of IRE1 with Tunicamycin suppressed VM (FIGS. 4E and F). […]
# 4T1-T^VM cells [4] = experiment: polyA+ RNA-Seq of treated cells with GO analysis and GSEA; assay type: cell-based, mouse
# Text: Y axis is log^2 fold change mRNA levels and X axis is the negative log^10 of the corrected p-value. Red points highlight significant changes with a p value below 0.05.
# To assess the role of VM as a resistance mechanism in this clinical cohort, we examined whether this Bev resistance gene signature was altered by perturbations that influence VM (FIGS. 9A-9C). […] Thus, co-targeting of VM may enhance response to anti-angiogenic cancer therapies.
# 4T1-T^VM cells [5] = experiment: plating remaining treated cells in 2D (cell viability); assay type: cell-based, mouse; conditions: remaining treated cells plated in 2D
# Text: To ascertain whether regulation of VM underlies these effects of IRE1 on metastasis we turned to the in vitro VM tube assay. Inhibition of IRE1 with two independent small molecule inhibitors of its RNAse activity enhanced VM tubulogenesis while activation of IRE1 with Tunicamycin suppressed VM (FIGS. 4E and F).
Substance,clinical response [1],toxicity in vivo [2],VM tubulogenesis (tube formation) (4T1-T^VM cells [3]),GO analysis of genes significantly down-regulated by Tunicamycin/IRE1 activation and up-regulated by IRE1 inhibition (4T1-T^VM cells [4]; DESeq corrected p value<0.05),GO analysis of genes significantly up-regulated by Tunicamycin/IRE1 activation and down-regulated by IRE1 inhibition (4T1-T^VM cells [4]; DESeq corrected p value<0.05),Bev resistance gene signature (GSEA) (4T1-T^VM cells [4]; bevacizumab resistance genes of Mehta et al. in IRE1-regulated expression data),VM gene signature (GSEA) (4T1-T^VM cells [4]; signature from VM clones vs all other clones),effects on cell viability (4T1-T^VM cells [5])
Avastin®/bevacizumab: VEGF-blocking antibody (Genentech),most patients showing transient responses followed by inevitable resistance,–,–,–,–,–,–,–
Tunicamycin,–,without apparent toxicity,suppressed VM; also recorded: profoundly suppresses VM tubulogenesis,enriched for regulators of vasculature development and secreted ECM/ECM-affiliated genes,enrichment of terms related to ER stress,globally down-regulated; also recorded: profoundly suppresses,profoundly suppresses,ruled out any demonstrable effects on cell viability
